Assay results published in US20250161476A1 (REGENERON PHARMACEUTICALS, INC., priority 2020, published 2025).
pEC50: −log10 of the molar value. *1 amine or outer side, *2 acyl side, *3 side chain or, on linkers, in order; H or OH if unused. Where a SMILES comes first, the peptide text is derived from it. Side-chain parts run from the residue outwards. [ ]: non-standard residue; d: D form. The star is where a group is joined. PEG24 = NCCOCCOCCOCCOCCOCCOCCOCCOCCOCCOCCOCCOCCOCCOCCOCCOCCOCCOCCOCCOCCOCCOCCOCCOCCC(=O)O; Bip(2'-Et-4'-O(CH2)4NH2) = CCc1cc(OCCCCN[*:3])ccc1-c1ccc(C[C@H](N[*:1])C(=O)[*:2])cc1; Bip(2'-Et,4'-O(CH2)4N3) = CCc1cc(OCCCCN=[N+]=[N-])ccc1-c1ccc(C[C@H](N)C(=O)O)cc1; Bip(2'-Et,4'-O(CH2)4NH2) = CCc1cc(OCCCCN)ccc1-c1ccc(C[C@H](N)C(=O)O)cc1; X6 = O=C(NCCOCCOCCOCCOC(=O)*)OC[C@@H]1[C@@H]2CCc3[nH]nnc3CC[C@@H]21; Malonyl(2,2-Me2,histaminyl) = CC(C)(C(=O)NCCc1cnc[nH]1)C(=O)*; Nva(5-(3,5-Me2Ph)) = Cc1cc(C)cc(CCC[C@H](N)C(=O)O)c1; Ala(1H-tetrazol-5-yl) = N[C@@H](Cc1nnn[nH]1)C(=O)O; αMePhe(2-F) = C[C@](N)(Cc1ccccc1F)C(=O)O; DBCO = C1#Cc2ccccc2N(*)Cc2ccccc21; Suc = O=C(CCC(=O)[*:2])[*:1]; Aib = CC(C)(N)C(=O)O

How the values were obtained:
[1] = tested on: HEK293/CRE-Luc cells; experiment: cAMP responsive luciferase reporter assay, HEK293/CRE-Luc cells (no hGLP1R expression); format: cell-based, human
Excerpt: (§1) To test the activity of GLP1R agonist payloads, GLP1R agonist linker-payloads (LPs), and anti-GLP1R antibody tethered drug conjugates (ATDCs) of the disclosure, a cell-based cAMP responsive luciferase reporter assay was developed. To generate the assay cell line, the firefly luciferase gene was placed under the control of a cAMP response element (CRE) located upstream of a minimal promoter and transfected into HEK293 cells and referred to herein as HEK293/CRE-Luc cells.
(§2) Three-fold serial dilutions of free payloads or LPs were prepared in 100% DMSO, transferred to fresh assay media, and added to the cells at a final constant DMSO concentration of 0.2%. The last well in the plate served as a blank control containing only the assay media and 0.2% DMSO (untreated well) and was plotted as a continuation of the 3-fold serial dilution. Four to six hours later, luciferase activity was determined after the addition of One-Glo™ reagent (Promega, Cat #E6130) to each well. Relative light units (RLUs) were measured on an Envision luminometer (PerkinElmer) and EC50 values were determined using a four-parameter logistic equation over a 12-point dose response curve (GraphPad Prism). The signal to noise (S/N) was determined by taking the ratio of the highest RLU on the dose response curve to the RLU in the untreated wells.

[2] = target: human GLP1R (Homo sapiens (Human), UniProt P43220); experiment: cAMP responsive luciferase reporter assay, HEK293/CRE-Luc/hGLP1R cells; format: cell-based
Chain of human GLP1R (P43220 24-463): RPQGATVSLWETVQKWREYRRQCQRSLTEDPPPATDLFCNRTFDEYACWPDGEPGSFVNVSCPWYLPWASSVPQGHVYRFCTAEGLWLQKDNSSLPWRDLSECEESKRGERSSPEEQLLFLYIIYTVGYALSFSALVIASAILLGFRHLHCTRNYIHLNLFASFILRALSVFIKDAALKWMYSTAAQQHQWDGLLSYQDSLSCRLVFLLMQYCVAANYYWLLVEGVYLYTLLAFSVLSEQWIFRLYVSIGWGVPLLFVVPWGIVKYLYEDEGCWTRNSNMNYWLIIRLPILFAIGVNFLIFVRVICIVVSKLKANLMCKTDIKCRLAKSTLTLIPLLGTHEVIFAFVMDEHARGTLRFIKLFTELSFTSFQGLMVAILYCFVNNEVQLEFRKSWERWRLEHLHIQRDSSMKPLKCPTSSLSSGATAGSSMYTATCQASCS
Excerpt: as §1, §2
GLP1R agonist linker payloads were conjugated to anti-hGLP1R antibodies via N-terminal heavy or light chain Q tags. Several resulting anti-GLP1R antibody tethered drug conjugates (ATDCs) were tested for activity in the HEK293/CRE-Luc/hGLP1R reporter assay as described above for the free GLP1R payload and linker-payload agonists.

[3] = Plasma stability of payloads and linker-payloads, human plasma; format: in vitro ADME; conditions: for half-life at 2 µM: human, pooled plasma, pH 7.4, payload properties table, species not given, read-out: Plasma stability t½ (converted)
Experimental: The plasma stability of payloads and linker payloads of the disclosure were measured. For the assay, pooled frozen plasma (human, mouse or monkey) was thawed in cold water or a 37° C. water bath prior to experiment. Plasma was centrifuged at 4000 rpm for 5 min if any clots were observed, they were subsequently removed. If required, the pH was adjusted to 7.4±0.1. For the preparation of compounds and positive controls, a 1 mM intermediate solution was prepared by diluting 10 μL of their stock solution with 90 μL DMSO; a 1 mM intermediate solution of the positive control (Propantheline) was prepared by diluting 10 μL of its stock solution with 90 μL ultrapure water. […] 98 μL of plasma was spiked with 2 μL of dosing solution (100 μM) to achieve the final concentration of 2 μM in duplicate. Samples were then incubated at 37° C. in a water bath. […] At each time point, 400 μL of stop solution (200 ng/mL tolbutamide plus 200 ng/mL labetalol in 50% ACN/MeOH) was added to precipitate protein and mixed thoroughly. Sample plates were then centrifuged at 4,000 rpm for 10 min. An aliquot of supernatant (50 μL) was transferred from each well and mixed with 100 μL ultra-pure water. The samples were then shaken at 800 rpm for approximately 10 min before submitting for LC-MS/MS analysis.

[4] = relative to P8 of the same experiment
[5] = human plasma, tested for 7 days (D)
[6] = human plasma, tested for 3 days (C)
[7] = human plasma, tested for 1 day (A)

CC[C@H](C)[C@H](NC(=O)[C@H](Cc1ccccc1)NC(=O)[C@H](CCC(=O)O)NC(=O)[C@H](CCCCN)NC(=O)[C@H](C)NC(=O)[C@H](C)NC(=O)[C@H](CCC(N)=O)NC(=O)CNC(=O)[C@H](CCC(=O)O)NC(=O)[C@H](CC(C)C)NC(=O)[C@H](Cc1ccc(O)cc1)NC(=O)[C@H](CO)NC(=O)[C@H](CO)NC(=O)[C@@H](NC(=O)[C@H](CC(=O)O)NC(=O)[C@H](CO)NC(=O)[C@@H](NC(=O)[C@H](Cc1ccccc1)NC(=O)[C@@H](NC(=O)CNC(=O)[C@H](CCC(=O)O)NC(=O)[C@H](C)NC(=O)[C@@H](N)Cc1c[nH]cn1)[C@@H](C)O)[C@@H](C)O)C(C)C)C(=O)N[C@@H](C)C(=O)N[C@@H](Cc1c[nH]c2ccccc12)C(=O)N[C@@H](CC(C)C)C(=O)N[C@H](C(=O)N[C@@H](CCCCN)C(=O)NCC(=O)N[C@@H](CCCNC(=N)N)C(N)=O)C(C)C [GLP1, Glucagon-like peptide 1, reference compound]
HEK293/CRE-LUC S/N [1]: 1.3 | HEK293/CRE-Luc S/N ([1]; ATDCs, Table 12): 1.4

CCc1cc(OCCCCNC(=O)CCOCCOCCOCCOCCOCCOCCOCCOCCOCCOCCOCCOCCOCCOCCOCCOCCOCCOCCOCCOCCOCCOCCOCCOCCNC(=O)CCC(=O)N2Cc3ccccc3C#Cc3ccccc32)ccc1-c1ccc(C[C@H](NC(=O)[C@H](CC(=O)O)NC(=O)[C@H](CO)NC(=O)[C@@H](NC(=O)[C@](C)(Cc2ccccc2F)NC(=O)[C@@H](NC(=O)CNC(=O)[C@H](Cc2nn[nH]n2)NC(=O)C(C)(C)C(=O)NCCc2cnc[nH]2)[C@@H](C)O)[C@@H](C)O)C(=O)N[C@@H](CCCc2cc(C)cc(C)c2)C(N)=O)cc1 [LP4, DIBAC-suc-PEG24-P9] ({Malonyl(2,2-Me2,histaminyl)}-[Ala(1H-tetrazol-5-yl)]GT[αMePhe(2-F)]TSD[Bip(2'-Et-4'-O(CH2)4NH2)]([PEG24-Suc-DBCO])[Nva(5-(3,5-Me2Ph))]-NH2)
HEK293/CRE-LUC/hGLP1R S/N ([2]; highest RLU / RLU of untreated wells): 63.8 | HEK293/CRE-LUC/hGLP1R Relative Potency (% P8 EC50) [2, 4]: 4.2% | HEK293/CRE-LUC/hGLP1R Relative Signal:Noise (% P8) [2, 4]: 97.1% | pEC50 [1]: < 6.70 | HEK293/CRE-LUC S/N [1]: 1.7

CCc1cc(OCCCCn2cc(COCCOCCOCCOCCNC(=O)OC[C@@H]3[C@@H]4CCc5[nH]nnc5CC[C@@H]43)nn2)ccc1-c1ccc(C[C@H](NC(=O)[C@H](CC(=O)O)NC(=O)[C@H](CO)NC(=O)[C@@H](NC(=O)[C@](C)(Cc2ccccc2F)NC(=O)[C@@H](NC(=O)CNC(=O)[C@H](Cc2nn[nH]n2)NC(=O)C(C)(C)C(=O)NCCc2cnc[nH]2)[C@@H](C)O)[C@@H](C)O)C(=O)N[C@@H](CCCc2cc(C)cc(C)c2)C(N)=O)cc1 [LP24, triazole-BCN-PEG4-triazole-P8]
Human plasma stability assay T½ [3, 5]: >404.7 h

CCc1cc(OCCCCNC(=O)OCCOCCOCCOCCNC(=O)OC[C@@H]2[C@@H]3CCc4[nH]nnc4CC[C@@H]32)ccc1-c1ccc(C[C@H](NC(=O)[C@H](CC(=O)O)NC(=O)[C@H](CO)NC(=O)[C@@H](NC(=O)[C@](C)(Cc2ccccc2F)NC(=O)[C@@H](NC(=O)CNC(=O)[C@H](Cc2nn[nH]n2)NC(=O)C(C)(C)C(=O)NCCc2cnc[nH]2)[C@@H](C)O)[C@@H](C)O)C(=O)N[C@@H](CCCc2cc(C)cc(C)c2)C(N)=O)cc1 [LP25, triazole-BCN-PEG4-carbamate-P9] ({Malonyl(2,2-Me2,histaminyl)}-[Ala(1H-tetrazol-5-yl)]GT[αMePhe(2-F)]TSD[Bip(2'-Et-4'-O(CH2)4NH2)](X6)[Nva(5-(3,5-Me2Ph))]-NH2)
Human plasma stability assay T½ [3, 5]: 284.8 h

CCc1cc(OCCCCNC(=O)[C@H](CO)NC(=O)CNC(=O)CNC(=O)CNC(=O)CNC(=O)CCC(=O)N2Cc3ccccc3-c3nn[nH]c3-c3ccccc32)ccc1-c1ccc(C[C@H](NC(=O)[C@H](CC(=O)O)NC(=O)[C@H](CO)NC(=O)[C@@H](NC(=O)[C@](C)(Cc2ccccc2F)NC(=O)[C@@H](NC(=O)CNC(=O)[C@H](Cc2nn[nH]n2)NC(=O)C(C)(C)C(=O)NCCc2cnc[nH]2)[C@@H](C)O)[C@@H](C)O)C(=O)N[C@@H](CCCc2cc(C)cc(C)c2)C(N)=O)cc1 [LP26, triazole-DABAC- G4S-P9]
Human plasma stability assay T½ [3, 5]: >404.7 h

CCc1cc(OCCCCn2cc(COCCOCCOCCOCCOCCOCCOCCOCCNC(=O)CCC(=O)N3Cc4ccccc4-c4nn[nH]c4-c4ccccc43)nn2)ccc1-c1ccc(C[C@H](NC(=O)[C@H](CC(=O)O)NC(=O)[C@H](CO)NC(=O)[C@@H](NC(=O)[C@](C)(Cc2ccccc2F)NC(=O)[C@@H](NC(=O)CNC(=O)[C@H](Cc2nn[nH]n2)NC(=O)C(C)(C)C(=O)NCCc2cnc[nH]2)[C@@H](C)O)[C@@H](C)O)C(=O)N[C@@H](CCCc2cc(C)cc(C)c2)C(N)=O)cc1 [LP28, triazole-DIBAC-suc-PEG8-triazole-P8]
half-life ([3]; human plasma, tested for 3 days (C), read-out: Human plasma stability assay T½): > 173 h

CCc1cc(OCCCCn2cc(COCCOCCOCCOCCOCCOCCOCCOCCN)nn2)ccc1-c1ccc(C[C@H](NC(=O)[C@H](CC(=O)O)NC(=O)[C@H](CO)NC(=O)[C@@H](NC(=O)[C@](C)(Cc2ccccc2F)NC(=O)[C@@H](NC(=O)CNC(=O)[C@H](Cc2nn[nH]n2)NC(=O)C(C)(C)NC(=O)[C@@H](N)Cc2ccc(O)cc2)[C@@H](C)O)[C@@H](C)O)C(=O)N[C@@H](CCCc2cc(C)cc(C)c2)C(N)=O)cc1 [LP29, NH2-PEG8-triazole-P19]
Human plasma stability assay T½ [3, 6]: >173.4 h

CCc1cc(OCCCCn2cc(COCCOCCOCCOCCOCCOCCOCCOCCC(=O)N[C@@H](CC(C)C)C(=O)N3CCC[C@@H]3C(=O)N[C@@H](CCC(=O)O)C(=O)N[C@H](C(=O)NCC(=O)NCC(=O)O)[C@@H](C)O)nn2)ccc1-c1ccc(C[C@H](NC(=O)[C@H](CC(=O)O)NC(=O)[C@H](CO)NC(=O)[C@@H](NC(=O)[C@](C)(Cc2ccccc2F)NC(=O)[C@@H](NC(=O)CNC(=O)[C@H](Cc2nn[nH]n2)NC(=O)C(C)(C)C(=O)NCCc2cnc[nH]2)[C@@H](C)O)[C@@H](C)O)C(=O)N[C@@H](CCCc2cc(C)cc(C)c2)C(N)=O)cc1 [LP34, GGTEPL-PEG8- triazole-P8]
Human plasma stability assay T½ [3, 6]: >173.4 h

CCc1cc(OCCCCN)ccc1-c1ccc(C[C@H](NC(=O)[C@H](CC(=O)O)NC(=O)[C@H](CO)NC(=O)[C@@H](NC(=O)[C@](C)(Cc2ccccc2F)NC(=O)[C@@H](NC(=O)CNC(=O)[C@@H](N)Cc2nn[nH]n2)[C@@H](C)O)[C@@H](C)O)C(=O)N[C@@H](CCCc2cc(C)cc(C)c2)C(N)=O)cc1 [P2]
Human plasma stability assay T½ ([3]; human plasma, tested for 2 hrs (B)): 10.74 h | half-life at 2 µM [3]: 10.7 h

CCc1cc(OCCCCN)ccc1-c1ccc(C[C@H](NC(=O)[C@H](CC(=O)O)NC(=O)[C@H](CO)NC(=O)[C@@H](NC(=O)[C@](C)(Cc2ccccc2F)NC(=O)[C@@H](NC(=O)CNC(=O)[C@H](Cc2nn[nH]n2)NC(=O)C(C)(C)NC(=O)[C@@H](N)Cc2ccc(O)cc2)[C@@H](C)O)[C@@H](C)O)C(=O)N[C@@H](CCCc2cc(C)cc(C)c2)C(N)=O)cc1 [P19] (H-Y[Aib][Ala(1H-tetrazol-5-yl)]GT[αMePhe(2-F)]TSD[Bip(2'-Et,4'-O(CH2)4NH2)][Nva(5-(3,5-Me2Ph))]-NH2)
Human plasma stability assay T½ [3, 7]: >57.81 h | half-life at 2 µM [3]: > 57.8 h

CCc1cc(OCCCCN=[N+]=[N-])ccc1-c1ccc(C[C@H](NC(=O)[C@H](CC(=O)O)NC(=O)[C@H](CO)NC(=O)[C@@H](NC(=O)[C@](C)(Cc2ccccc2F)NC(=O)[C@@H](NC(=O)CNC(=O)[C@H](Cc2nn[nH]n2)NC(=O)C(C)(C)C(=O)NCCc2cnc[nH]2)[C@@H](C)O)[C@@H](C)O)C(=O)N[C@@H](CCCc2cc(C)cc(C)c2)C(=O)O)cc1 [P41] ({Malonyl(2,2-Me2,histaminyl)}-[Ala(1H-tetrazol-5-yl)]GT[αMePhe(2-F)]TSD[Bip(2'-Et,4'-O(CH2)4N3)][Nva(5-(3,5-Me2Ph))]-OH)
Human plasma stability assay T½ [3, 7]: >57.81 h
